Data from US20170190671A1, “BIS(ARYL)CATECHOL DERIVATIVES AS HERBICIDES” (E I DU PONT DE NEMOURS AND COMPANY, priority 2014, published 2017).

Experiments:
[1] = system: chickweed (common chickweed, Stellaria media); test: Test C postemergence; type: in vivo; conditions: Stellaria media, post-emergence, Postemergence, scale 0 to 100, read-out: Plant response rating, Chickweed
Outline: (§1)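 Seeds sown in a loam soil and sand blend were treated preemergence; plants in peat-moss/vermiculite medium were sprayed at the 1- to 4-leaf stage (2-18 cm). Chemicals were in a non-phytotoxic surfactant-containing solvent. After 13 to 15 days in a greenhouse, injury was visually rated against controls on a 0-100 scale.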

[2] = system: winter wheat (Triticum aestivum); test: Test C postemergence; type: in vivo; conditions: Triticum aestivum, post-emergence, 336 h, Postemergence, scale 0 to 100, read-out: Plant response rating, Wheat
Outline: as §1

kochia (Kochia scoparia) = test: Test C postemergence; type: in vivo; conditions: Bassia scoparia, post-emergence, Postemergence, scale 0 to 100, read-out: Plant response rating, Kochia
Outline: as §1

[3] = system: barnyardgrass (Echinochloa crus-galli); test: Test C postemergence; type: in vivo; conditions: Echinochloa crus-galli, post-emergence, Postemergence, scale 0 to 100, read-out: Plant response rating, Barnyardgrass
Outline: as §1

soybean (Glycine max) = test: Test C postemergence; type: in vivo; conditions: Glycine max, post-emergence, Postemergence, scale 0 to 100, read-out: Plant response rating, Soybean
Outline: as §1

[4] = system: yellow nutsedge (Cyperus esculentus); test: Test C postemergence; type: in vivo; conditions: Cyperus, post-emergence, 336 h, Postemergence, scale 0 to 100, read-out: Plant response rating, Nutsedge, Yellow
Outline: as §1

[5] = system: ragweed (common ragweed, Ambrosia elatior); test: Test C postemergence; type: in vivo; conditions: Ambrosia artemisiifolia, post-emergence, 336 h, Postemergence, scale 0 to 100, read-out: Plant response rating, Ragweed
Outline: as §1

wild oat (Avena fatua) = test: Test C postemergence; type: in vivo; conditions: Avena fatua, post-emergence, Postemergence, scale 0 to 100, read-out: Plant response rating, Oat, Wild
Outline: as §1

[6] = system: lambsquarters (Chenopodium album); test: Test C postemergence; type: in vivo; conditions: Chenopodium album, post-emergence, 336 h, Postemergence, scale 0 to 100, read-out: Plant response rating, Lambsquarters
Outline: as §1

[7] = system: large (Lg) crabgrass (Digitaria sanguinalis); test: Test C postemergence; type: in vivo; conditions: Digitaria sanguinalis, post-emergence, 336 h, Postemergence, scale 0 to 100, read-out: Plant response rating, Crabgrass, Large
Outline: as §1

[8] = system: oilseed rape (Brassica napus); test: Test C postemergence; type: in vivo; conditions: Brassica napus, post-emergence, Postemergence, scale 0 to 100, read-out: Plant response rating, Oilseed Rape
Outline: as §1

[9] = system: pigweed (Amaranthus retroflexus); test: Test C postemergence; type: in vivo; conditions: Amaranthus retroflexus, post-emergence, 336 h, Postemergence, scale 0 to 100, read-out: Plant response rating, Pigweed
Outline: as §1

[10] = system: velvetleaf (Abutilon theophrasti); test: Test C postemergence; type: in vivo; conditions: Abutilon theophrasti, post-emergence, Postemergence, scale 0 to 100, read-out: Plant response rating, Velvetleaf
Outline: as §1

[11] = system: johnsongrass (Sorghum halepense); test: Test C postemergence; type: in vivo; conditions: Sorghum halepense, post-emergence, 336 h, Postemergence, scale 0 to 100, read-out: Plant response rating, Johnsongrass
Outline: as §1

corn (Zea mays) = test: Test C postemergence; type: in vivo; conditions: Zea mays, post-emergence, 336 h, Postemergence, scale 0 to 100
Outline: as §1

[12] = system: Italian ryegrass (Lolium multiflorum); test: Test C postemergence; type: in vivo; conditions: Lolium multiflorum, post-emergence, 336 h, Postemergence, scale 0 to 100, read-out: Plant response rating, Ryegrass, Italian
Outline: as §1

[13] = system: blackgrass (Alopecurus myosuroides); test: Test C postemergence; type: in vivo; conditions: Alopecurus myosuroides, post-emergence, 336 h, Postemergence, scale 0 to 100, read-out: Plant response rating, Blackgrass
Outline: as §1

[14] = system: waterhemp (common waterhemp, Amaranthus rudis); test: Test C postemergence; type: in vivo; conditions: Amaranthus tuberculatus, post-emergence, Postemergence, scale 0 to 100, read-out: Plant response rating, Waterhemp
Outline: as §1

[15] = system: morningglory (Ipomoea coccinea); test: Test C preemergence; type: in vivo; conditions: Ipomoea, pre-emergence, 336 h, scale 0 to 100, read-out: Plant response rating, Morningglory
Outline: as §1

[16] = system: oilseed rape (Brassica napus); test: Test C preemergence; type: in vivo; conditions: Brassica napus, pre-emergence, scale 0 to 100, read-out: Plant response rating, Oilseed Rape
Outline: as §1

[17] = system: galium (catchweed bedstraw, Galium aparine); test: Test C preemergence; type: in vivo; conditions: Galium, pre-emergence, 336 h, scale 0 to 100, read-out: Plant response rating, Galium
Outline: as §1

[18] = system: waterhemp (common waterhemp, Amaranthus rudis); test: Test C preemergence; type: in vivo; conditions: Amaranthus tuberculatus, pre-emergence, scale 0 to 100, read-out: Plant response rating, Waterhemp
Outline: as §1

N#Cc1cccc(Oc2ncc(C(F)(F)F)cn2)c1Oc1ncc(Cl)cn1 [Compound 39, 2-[(5-chloro-2-pyrimidinyl)oxy]-3-[[5-(trifluoromethyl)-2-pyrimidinyl]oxy]-benzonitrile]
65%: pest or weed control at 31 g/ha ([5]; 31 g ai/ha)
30%: pest or weed control at 125 g/ha ([13]; 125 g ai/ha)
20%: Corn plant response rating (crop injury, 0 = no effect, 100 = complete kill) at 125 g/ha (corn (Zea mays); 125 g ai/ha)
98%: pest or weed control at 62 g/ha ([15]; 62 g ai/ha, preemergence)
15%: pest or weed control at 31 g/ha ([3]; 31 g ai/ha) | pest or weed control at 62 g/ha ([3]; 62 g ai/ha) | pest or weed control at 125 g/ha (wild oat (Avena fatua); 125 g ai/ha) | pest or weed control at 31 g/ha ([11]; 31 g ai/ha) | pest or weed control at 62 g/ha ([13]; 62 g ai/ha)
45%: pest or weed control at 16 g/ha ([15]; Preemergence, 16 g ai/ha)
10%: pest or weed control at 62 g/ha (wild oat (Avena fatua); 62 g ai/ha) | pest or weed control at 62 g/ha ([7]; 62 g ai/ha) | pest or weed control at 125 g/ha ([7]; 125 g ai/ha) | pest or weed control at 62 g/ha ([11]; 62 g ai/ha) | pest or weed control at 125 g/ha ([11]; 125 g ai/ha) | Corn plant response rating (crop injury, 0 = no effect, 100 = complete kill) at 31 g/ha (corn (Zea mays); 31 g ai/ha) | Corn plant response rating (crop injury, 0 = no effect, 100 = complete kill) at 62 g/ha (corn (Zea mays); 62 g ai/ha) | pest or weed control at 125 g/ha ([12]; 125 g ai/ha) | pest or weed control at 31 g/ha ([13]; 31 g ai/ha)
5%: plant injury at 62 g/ha ([2]; 62 g ai/ha) | pest or weed control at 16 g/ha ([3]; 16 g ai/ha) | pest or weed control at 31 g/ha ([4]; 31 g ai/ha) | pest or weed control at 62 g/ha ([4]; 62 g ai/ha) | pest or weed control at 125 g/ha ([4]; 125 g ai/ha) | pest or weed control at 31 g/ha (wild oat (Avena fatua); 31 g ai/ha) | pest or weed control at 16 g/ha ([7]; 16 g ai/ha) | pest or weed control at 31 g/ha ([7]; 31 g ai/ha) | plant injury at 31 g/ha ([8]; 31 g ai/ha) | pest or weed control at 16 g/ha ([11]; 16 g ai/ha) | Corn plant response rating (crop injury, 0 = no effect, 100 = complete kill) at 16 g/ha (corn (Zea mays); 16 g ai/ha) | pest or weed control at 62 g/ha ([12]; 62 g ai/ha) | pest or weed control at 16 g/ha ([13]; 16 g ai/ha)
40%: plant injury at 62 g/ha ([8]; 62 g ai/ha) | plant injury at 125 g/ha ([8]; 125 g ai/ha)
25%: pest or weed control at 125 g/ha ([3]; 125 g ai/ha)
75%: pest or weed control at 16 g/ha ([6]; 16 g ai/ha) | pest or weed control at 31 g/ha ([14]; 31 g ai/ha)
90%: pest or weed control at 62 g/ha ([1]; 62 g ai/ha) | pest or weed control at 125 g/ha ([1]; 125 g ai/ha) | pest or weed control at 16 g/ha (kochia (Kochia scoparia); 16 g ai/ha) | pest or weed control at 62 g/ha ([9]; 62 g ai/ha) | plant injury at 31 g/ha ([16]; 31 g ai/ha, preemergence) | pest or weed control at 31 g/ha ([17]; 31 g ai/ha, preemergence)
95%: pest or weed control at 31 g/ha (kochia (Kochia scoparia); 31 g ai/ha) | plant injury at 62 g/ha (soybean (Glycine max); 62 g ai/ha) | pest or weed control at 125 g/ha ([9]; 125 g ai/ha) | pest or weed control at 125 g/ha ([14]; 125 g ai/ha)
80%: pest or weed control at 62 g/ha ([6]; 62 g ai/ha) | pest or weed control at 31 g/ha ([15]; 31 g ai/ha, preemergence) | plant injury at 16 g/ha ([16]; Preemergence, 16 g ai/ha)
70%: plant injury at 125 g/ha (soybean (Glycine max); 125 g ai/ha) | pest or weed control at 31 g/ha ([6]; 31 g ai/ha) | pest or weed control at 31 g/ha ([9]; 31 g ai/ha)
60%: pest or weed control at 16 g/ha ([1]; 16 g ai/ha) | pest or weed control at 31 g/ha ([1]; 31 g ai/ha) | plant injury at 31 g/ha (soybean (Glycine max); 31 g ai/ha) | pest or weed control at 62 g/ha ([5]; 62 g ai/ha) | pest or weed control at 62 g/ha ([10]; 62 g ai/ha) | pest or weed control at 125 g/ha ([10]; 125 g ai/ha)
85%: pest or weed control at 125 g/ha ([5]; 125 g ai/ha) | pest or weed control at 125 g/ha ([6]; 125 g ai/ha) | pest or weed control at 62 g/ha ([14]; 62 g ai/ha) | pest or weed control at 62 g/ha ([17]; 62 g ai/ha, preemergence) | pest or weed control at 16 g/ha ([17]; Preemergence, 16 g ai/ha)
109 to 112 °C: melting point
55%: pest or weed control at 31 g/ha ([10]; 31 g ai/ha)
0%: plant injury at 31 g/ha ([2]; 31 g ai/ha) | plant injury at 125 g/ha ([2]; 125 g ai/ha) | pest or weed control at 31 g/ha ([12]; 31 g ai/ha)
100%: pest or weed control at 62 g/ha (kochia (Kochia scoparia); 62 g ai/ha) | pest or weed control at 125 g/ha (kochia (Kochia scoparia); 125 g ai/ha) | pest or weed control at 125 g/ha ([15]; 125 g ai/ha, preemergence) | plant injury at 62 g/ha ([16]; 62 g ai/ha, preemergence) | plant injury at 125 g/ha ([16]; 125 g ai/ha, preemergence) | pest or weed control at 125 g/ha ([17]; 125 g ai/ha, preemergence) | pest or weed control at 31 g/ha ([18]; 31 g ai/ha, preemergence) | pest or weed control at 62 g/ha ([18]; 62 g ai/ha, preemergence) | pest or weed control at 125 g/ha ([18]; 125 g ai/ha, preemergence) | pest or weed control at 16 g/ha ([18]; Preemergence, 16 g ai/ha)
